Source: patent publication US5302514A, “Maltooligoside derivative, reagent for determining α-amylase activity containing the same as effective ingredient and a process for determining the α-amylase activity using same” (Kikkoman Corporation, priority 1991, dated 1994)

Experiments:
[1] = test system: human α-amylase (P:S=1:1); test: α-Amylase hydrolysis (increase in absorbance at 400 nm with coupled enzymes); type: biochemical; settings: for Increase in absorbance for 2 minutes (corrected by the 0 IU/l of α-amylase activity): substrate solution 3.00 mM, 400 nm, 37° C., pH 7.0; for hydrolysis by α-amylase (in words): as understood from Tables 1 and 2
Method: (§1) Coupled enzyme solution was prepared by dissolving a commercially available α-glucosidase derived from yeast and a commercially available β-glucosidase derived from almond in a 50 mM phosphate buffer (pH=7.0) containing 40 mM NaCl and 2 mM MgCl2 to a concentration of 117 units/ml and 13 units/ml, respectively. As the commercially available α- and β-glucosidases, those available from Toyobo Co., Ltd. were used.
Standard α-amylase solutions were prepared by dissolving a commercially available human α-amylase (P:S=1:1) in purified water to a concentration of 0, 148, 284, 401 and 525 IU/l, respectively. As the commercially available human α-amylase, Calibzyme.AMY manufactured by International Reagents Corp. was employed. As for the activity of α-amylase, an amount of the enzyme which decomposes 1μ mol of (a commercially available) 2-chloro-4-nitrophenyl β-D-maltopentaoside at 37° C. for one minute was defined as 1 international unit (IU).
The substrate solution (a) was prepared by dissolving 2-chloro-4-nitorphenyl 6^5 -azido-6^5 -deoxy-β-D-maltopentaoside (referred to hereinafter as the substrate of the present invention) obtained in Example 3 in a 50 mM phosphate buffer (pH=7.0) containing 40 mM NaCl and 2 mM MgCl2 to a concentration of 3.00 mM.
The substrate solution (b) was prepared by dissolving 2-chloro-4-nitrophenyl 6^3 -azido-6^3 -deoxy-β-D-maltotrioside (referred to hereinafter as the reference substrate) obtained in the step (1) in a 50 mM phosphate buffer (pH=7.0) containing 40 mM NaCl and 2 mM MgCl2 to a concentration of 3.00 mM.
A coupled enzyme solution was prepared in the same manner as in the step (2) of Example 5.
α-amylase solutions were prepared in the same manner as in the step (3) of Example 5 by dissolving a commercially available human α-amylase (P:S=1:1) in purified water to a concentration of 0, 250 and 500 IU/l, respectively.
The coupled enzyme solution in an amount of 1.0 ml was added with stirring to 250 μl of the α-amylase solution, and the mixture was heated at 37° C. for one minute. Each of the substrate solution in an amount of 2.0 ml was added with stirring to the mixture, and the mixture was heated at 37° C. for 2 minutes before measuring the variation of the absorbance at 400 nm for 2 minutes.
2-chloro-4-nitrophenyl 5^5 -eno-4^5 -O-mesyl-β-D-maltopentaoside (referred to hereinafter as substrate of the present invention) obtained in Example 1 was dissolved in a 50 mM phosphate buffer (pH=7.0) containing 40 mM NaCl and 2 mM MgCl2 to a concentration of 3.00 mM.
2-chloro-4-nitrophenyl 5^3 -eno-4^3 -O-mesyl-β-D-maltotrioside(referred to hereinafter as reference substrate) obtained in the previous step (1) was dissolved in a 50 mM phosphate buffer (pH=7.0) containing 40 mM NaCl an 2 mM MgCl2 to a concentration of 3.00 mM.
α-amylase solutions were prepared in the same manner as in the step (5) of Example 7.
The variations of absorbance were measured in the same manner as in the step (6) of Example 7.

[2] = test system: coupled enzyme (α-glucosidase derived from yeast and β-glucosidase derived from almond); test: Coupled enzyme resistance test; type: biochemical; settings: 37° C., pH 7.0, FIG. 3 / FIG. 4; for hydrolysis by the coupled enzyme (in words): 3.0 mM substrate solution, α-glucosidase 1053 units/ml, β-glucosidase 15.5 units/ml, 400 nm for 5 minutes; for stability in a measuring system (in words): coupled enzyme system
Method: 2-chloro-4-nitrophenyl 5^5 -eno-4^5 -O-mesyl-β-D-maltopentaoside (molecular weight: 1044; referred to hereinafter as substrate of the present invention) obtained in Example 1 was dissolved in a 50 mM phosphate buffer (pH=7.0) containing 40 mM NaCl and 2 mM MgCl2 to a concentration of 3.0 mM.
2-chloro-4-nitrophenyl β-D-maltopentaoside (molecular weight: 984; referred to hereinafter as reference substrate) obtained in the conventional method was dissolved in a 50 mM phosphate buffer (pH=7.0) containing 40 mM NaCl and 2 mM MgCl2 to a concentation of 3.0 mM.
as §1, with “1053” for “117”, “15.5” for “13”
After 1.0 ml of a coupled enzyme solution was heated at 37° C. for 5 minutes, it was mixed sufficiently with 2.0 ml of the substrate solution of the present invention or the reference substrate solution and heated at 37° C. for 3 minutes. Then, variations of the absorbance at a wavelength of 400 nm were measured for 5 minutes.
The test was carried out in the same manner as in Example 9 except that 2-chloro-4-nitrophenyl 6^5 -azido-6^5 -deoxy-β-D-maltopentaoside (molecular weight: 1009; referred to hereinafter as the substrate of the present invention) obtained in Example 3 was employed as the substrate (a). In FIG. 4, marks Δ show the plottings of the substrate solution (a) and the marks .quadrature. show the plottings of the substrate solution (b).

Solubility in water = type: physicochemical; settings: 20 g of substrate added to 100 ml of water
Method: To 100 ml of water was added 20 g of a substrate, and the dissolution state was observed.

With `[N-]=[N+]=NC[C@H]1O[C@H](O[C@H]2[C@H](O)[C@@H](O)[C@@H](O[C@H]3[C@H](O)[C@@H](O)[C@@H](O[C@H]4[C@H](O)[C@@H](O)[C@@H](O[C@H]5[C@H](O)[C@@H](O)[C@H](Oc6ccc([N+](=O)[O-])cc6Cl)O[C@@H]5CO)O[C@@H]4CO)O[C@@H]3CO)O[C@@H]2CO)[C@H](O)[C@@H](O)[C@@H]1O` [ADG5CNP, 2-chloro-4-nitrophenyl 6^5-azido-6^5-deoxy-β-D-maltopentaoside] the “Increase in absorbance for 2 minutes (corrected by the 0 IU/l of α-amylase activity)” value (from here on “Increase in absorbance for 2 minutes”) ([1]; Table 1, α-amylase activity 250 IU/l) was 0.058, the “Increase in absorbance for 2 minutes” value ([1]; Table 1, α-amylase activity 500 IU/l) was 0.118 and the “hydrolysis by α-amylase (in words)” value [1] was “hydrolyzed satisfactorily”. The “hydrolysis by the coupled enzyme (in words)” value [2] was “not hydrolyzed”, the “stability in a measuring system (in words)” value [2] was “stable” and the Solubility in water (Solubility in water) was “Good”.
In the case of `C=C1O[C@H](O[C@H]2[C@H](O)[C@@H](O)[C@@H](O[C@H]3[C@H](O)[C@@H](O)[C@@H](O[C@H]4[C@H](O)[C@@H](O)[C@@H](O[C@H]5[C@H](O)[C@@H](O)[C@H](Oc6ccc([N+](=O)[O-])cc6Cl)O[C@@H]5CO)O[C@@H]4CO)O[C@@H]3CO)O[C@@H]2CO)[C@H](O)[C@@H](O)[C@@H]1OS(C)(=O)=O` [EMG5CNP, 2-chloro-4-nitrophenyl 5^5-eno-4^5 -O-mesyl-β-D-maltopentaoside], the “Increase in absorbance for 2 minutes” value ([1]; Table 2, α-amylase activity 250 IU/l) is reported as 0.057, the “Increase in absorbance for 2 minutes” value ([1]; Table 2, α-amylase activity 500 IU/l) is reported as 0.116 and the “hydrolysis by α-amylase (in words)” value [1] is reported as “hydrolyzed extremely smoothly”. For the same molecule, the “hydrolysis by the coupled enzyme (in words)” value [2] was “not hydrolyzed”, the “stability in a measuring system (in words)” value [2] was “stable” and the Solubility in water (Solubility in water) was “Good”.
